# Experimental data taken from ChEMBL document CHEMBL1150152, “Araguspongines K and L, new bioactive bis-1-oxaquinolizidine N-oxide alkaloids from Red Sea specimens of Xestospongia exigua” (J Nat Prod, 2002).
# The source made the active and inactive calls. The rule behind the calls is not given here.
# Key:
# Plasmodium falciparum [1] = assay: Antimalarial activity against Plasmodium falciparum W2; format: functional, organism-based
# Plasmodium falciparum [2] = assay: Antimalarial activity against Plasmodium falciparum D6; format: functional, organism-based
# [3] = system: Mycobacterium tuberculosis; assay: Antitubercular activity against Mycobacterium tuberculosis H37Rv by alamar blue assay; format: functional
SMILES,Activity (Plasmodium falciparum [1]),Activity (Plasmodium falciparum [2]),IC50 (Plasmodium falciparum [1]) [µg/mL],IC50 (Plasmodium falciparum [2]) [µg/mL],MIC [3] [µM]
[O-][N+]12CCC[C@]3(O)CCCCCC[C@@H]4CCN5CCC[C@](O)(CCCCCC[C@H](CC1)O[C@@H]32)[C@@H]5O4 (stereo not given in full),inactive,inactive,,,
O[C@]12CCCCCC[C@@H]3CCN4CCC[C@](O)(CCCCCC[C@@H]5CCN(CCC1)[C@H]2O5)[C@@H]4O3,,,0.28,0.67,3.94
CO[C@H]1/C=C/O[C@@]2(C)Oc3c(C)c(O)c4c(O)c(c(/C=N/N5CCN(C)CC5)c(O)c4c3C2=O)NC(=O)/C(C)=C\C=C\[C@H](C)[C@H](O)[C@@H](C)[C@@H](O)[C@@H](C)[C@H](OC(C)=O)[C@@H]1C [RIFAMPIN],,,,,0.61
[O-][N+]12CCC[C@]3(O)CCCCCC[C@@H]4CCN5CCC[C@@H](CCCCCC[C@H](CC1)O[C@@H]32)[C@@H]5O4 (stereo not given in full),inactive,inactive,,,
C[C@@H]1CC[C@H]2[C@@H](C)C(=O)O[C@@H]3O[C@@]4(C)CC[C@@H]1[C@]32OO4 [ARTEMISININ],,,0.007,0.006,
